Experimental data reported in PubChem BioAssay (NCI).
Several values for one entry are separate records, joined by “and”; a condition that tells them apart may be missing. Equal values may be shown once.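 All cell lines were grown in 96-well plates and treated with compound for 48 hours. Here, GI50 denotes the concentration required for 50% inhibition of growth. The concentration for full growth arrest is given as TGI.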

Legend:
Assay in all cases: NCI anticancer screen, dose series, 48 h
NCI-H522 lung = system: NCI-H522 lung
NCI/ADR-RES ovarian = system: NCI/ADR-RES ovarian
SK-MEL-5 melanoma = system: SK-MEL-5 melanoma
IGROV1 ovarian = system: IGROV1 ovarian
OVCAR-4 ovarian = system: OVCAR-4 ovarian
SK-MEL-2 melanoma = system: SK-MEL-2 melanoma
OVCAR-8 ovarian = system: OVCAR-8 ovarian
PC-3 prostate = system: PC-3 prostate
UACC-62 melanoma = system: UACC-62 melanoma
A498 renal = system: A498 renal

Compound | GI50 (NCI-H522 lung) [µM] | TGI (NCI-H522 lung) [µM] | GI50 (NCI/ADR-RES ovarian) | TGI (NCI/ADR-RES ovarian) | GI50 (SK-MEL-5 melanoma) [µM] | TGI (SK-MEL-5 melanoma) | GI50 (IGROV1 ovarian) [µM] | TGI (IGROV1 ovarian) [µM] | GI50 (OVCAR-4 ovarian) | TGI (OVCAR-4 ovarian) | GI50 (SK-MEL-2 melanoma) [µM] | TGI (SK-MEL-2 melanoma) [µM] | GI50 (OVCAR-8 ovarian) [µM] | TGI (OVCAR-8 ovarian) | GI50 (PC-3 prostate) [µM] | TGI (PC-3 prostate) | GI50 (UACC-62 melanoma) [µM] | TGI (UACC-62 melanoma) | GI50 (A498 renal) [µM] | TGI (A498 renal)
COc1cccc(C2CC(c3cc(OC)c(OC)c(OC)c3)=NN2)c1 (centres undefined) | 12.8 | 42.1 | 4.55 µM | 27.4 µM | 11.8 | 24 µM | 2.02 | 13.1 | 23.5 µM | > 100 µM | 13.2 | 54.6 | 13.9 | 39 µM | 7.26 | 45.9 µM | 20.6 | > 100 µM | 12.9 | 38.6 µM
O=C(O)CSCc1cccc2ccccc12 | – | > 100 | – | > 100 µM | – | > 100 µM | – | > 100 | – | > 100 µM | – | > 100 | – | > 100 µM | – | > 100 µM | – | > 100 µM | – | > 100 µM
Cc1ccc(C(=O)N(CCCN)[C@@H](c2nc3cc(Cl)ccc3c(=O)n2Cc2ccccc2)C(C)C)cc1 | < 0.01 | – | 0.0481 µM and 0.0406 µM | 0.307 µM and 0.481 µM | < 0.01 | 1.35 µM and 1.46 µM | < 0.0336 | 2.09 | 1.28 µM and 1.13 µM | 3.54 µM and 2.46 µM | < 0.01 | – | < 0.01 | 1.52 µM and 2.11 µM | < 0.01 | 2.32 µM and 1.76 µM | < 0.01 | 1.91 µM and 1.57 µM | < 0.01 | 1.77 µM and 0.816 µM
O=[As](O)(O)c1ccc(NCc2ccccc2)cc1 | – | > 100 | – | > 100 µM | – | > 100 µM | – | > 100 | – | > 100 µM | – | > 100 | – | > 100 µM | – | > 100 µM | – | > 100 µM | – | > 100 µM
CCCN(CCC)CCCNCc1cc(I)cc(C)c1O | 16.9 | 31.1 | 15.4 µM | 29.8 µM | 6.83 | 19.3 µM | 15.6 | 29.6 | 17.9 µM | 37.8 µM | 20.1 | 36.3 | 17.4 | 35.7 µM | 15.1 | 28.4 µM | 5.54 | 18.6 µM | 11.6 | 23.8 µM
CC(C)(C)OC(=O)NCCNC1=CC(=O)c2nc3ccccc3c3ccnc1c23 | 18.3 | 44.8 | 23.3 µM | 74.5 µM | 11.1 | 23.1 µM | 24.6 | 77.3 | 24.3 µM | 67.6 µM | 28.4 | 85.1 | 16.6 | > 100 µM | 15.1 | 49.2 µM | 19.6 | 43.2 µM | 0.101 | 29.2 µM
C=C(Cn1c(=O)c2ccccc2c2ccccc21)c1ccc(C(=O)Nc2ccccc2N)cc1 | 4.55 | > 94.4 | 3.78 µM | > 57.8 µM | 20.6 | > 100 µM | 1.36 | > 29 | 5.22 µM | > 100 µM | > 86.3 | > 100 | 11.8 | > 100 µM | 4.37 | > 79.4 µM | 24.1 | > 100 µM | 30.6 | > 100 µM
O=C(/C=C/c1ccc(B(O)O)cc1)/C=C/c1ccc(B(O)O)cc1 | 4.07 | 15.7 | 17 µM | 62.9 µM | 1.94 | 4.47 µM | 3.46 | 13.3 | 11.4 µM | 24 µM | 16 | 40.9 | 9.39 | 22 µM | 3.31 | 14.3 µM | 1.73 | 4.41 µM | 2.34 | 10.3 µM
O=S(=O)(Nc1ncccn1)c1ccc(N=Nc2ccc(O)c3ncccc23)cc1 | 5 | 25.7 | 5.37 µM | 51.8 µM | 6.85 | 20.7 µM | 4.37 | 33 | 4.51 µM | 71.7 µM | 18.3 | 43.6 | 3.6 | 27.2 µM | 15.6 | > 100 µM | 3.4 | 14 µM | 12.5 | 27.2 µM
Cc1nc2ccc(CN(C)c3ccc(C(=O)N[C@@H](CCC(=O)O)C(=O)O)s3)cc2c(=O)[nH]1 | – | > 100 | < 0.0149 µM | > 100 µM | 0.173 | > 100 µM | – | > 100 | – | > 100 µM | – | > 100 | – | > 100 µM | – | > 100 µM | – | > 100 µM | > 100 | > 100 µM
Cc1nc2sccn2c1/C=C1/C(=O)Nc2ccccc21 | 1.85 | 22 | 3.51 µM | > 51 µM | 3.37 | > 62.9 µM | 2.27 | > 25.2 | > 29.6 µM | > 100 µM | 5.73 | > 100 | 12.7 | > 66.9 µM | 12.3 | > 100 µM | 2.52 | 21.2 µM | 1.68 | 9.72 µM
C=C1C(=O)O[C@H]2[C@H]1CC/C(CNC(=O)/C=C/c1ccc(Br)cc1)=C\CC[C@@]1(C)O[C@@H]21 | 0.711 | 2.3 | 2.59 µM | 10.5 µM | 1.6 | 2.96 µM | 1.24 | 3.05 | 1.37 µM | 2.96 µM | 1.4 | 3.02 | 1.67 | 5.75 µM | 1.47 | 3.24 µM | 1.34 | 2.78 µM | 0.236 | 2.45 µM
COc1cc(/C(Cl)=C/C=C/C(=O)c2c(C)[n+]([O-])c3ccc(Cl)cc3[n+]2[O-])cc(OC)c1OC | 1.38 | 4.23 | 1.97 µM | > 50 µM | 9.44 | > 50 µM | 3.78 | 13.2 | 5.07 µM | > 50 µM | – | – | 3.09 | > 50 µM | 3.58 | > 50 µM | 3.42 | 27.1 µM | 15.7 | > 50 µM
